Assay results: paper PMC7237647, “Synthesis, in vitro and in vivo evaluation of ^11C-O-methylated arylpiperazines as potential serotonin 1A (5-HT1A) receptor antagonist radiotracers” (EJNMMI Radiopharmacy and Chemistry, 2020)
pKi: −log10 of the molar value.

Assays:
Adenosine receptors = test: NIMH-PDSP radioligand binding assay, Adenosine receptors
DOR, KOR, MOR = test: NIMH-PDSP radioligand binding assay, DOR, KOR, MOR
5-HT1A receptors = target: 5-HT1A receptors; set-up: method as in ref Fiorino et al. [2012], Fiorino et al. [2016], Fiorino et al. [2017]; conditions: previous reports, different binding assay methodology; ref Fiorino et al. [2012], Fiorino et al. [2016], Fiorino et al. [2017]; cited from earlier work
5-HT3 = target: T1, 5-HT3 (Homo sapiens, UniProt P46098); test: NIMH-PDSP radioligand binding assay, 5-HT3
T1 construct: NIMH-PDSP
T1 sequence (P46098 24-478): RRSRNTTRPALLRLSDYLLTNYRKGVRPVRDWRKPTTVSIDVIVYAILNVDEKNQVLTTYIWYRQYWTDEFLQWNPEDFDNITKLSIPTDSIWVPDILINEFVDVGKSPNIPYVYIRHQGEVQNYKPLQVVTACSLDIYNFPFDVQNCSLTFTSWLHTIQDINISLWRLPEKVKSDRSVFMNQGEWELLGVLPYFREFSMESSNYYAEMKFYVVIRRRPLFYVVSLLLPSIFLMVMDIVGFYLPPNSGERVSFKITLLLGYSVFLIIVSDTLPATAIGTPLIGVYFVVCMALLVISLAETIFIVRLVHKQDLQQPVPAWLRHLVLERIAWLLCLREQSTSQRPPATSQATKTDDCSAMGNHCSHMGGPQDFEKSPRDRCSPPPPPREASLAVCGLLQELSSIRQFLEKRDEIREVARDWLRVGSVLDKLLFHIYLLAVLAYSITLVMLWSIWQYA
Description: (§1) . Cross selectivity for biogenic amines, neurotransmitter receptors, and transporters were determined by radioligand binding assays through NIMH- PDSP using validated and established protocols ([NIMH-PDSP Assay Protocol Book Version III, March 2018]).

5-HT2C = target: T2, 5-HT2C (Homo sapiens, UniProt P28335); set-up: method as in ref Fiorino et al. [2012]; Fiorino et al. [2016]; Fiorino et al. [2017]; conditions: previous preliminary pharmacological screening; ref Fiorino et al. [2012]; Fiorino et al. [2016]; Fiorino et al. [2017]; cited from earlier work
T2 construct: NIMH-PDSP
T2 sequence (P28335 33-458): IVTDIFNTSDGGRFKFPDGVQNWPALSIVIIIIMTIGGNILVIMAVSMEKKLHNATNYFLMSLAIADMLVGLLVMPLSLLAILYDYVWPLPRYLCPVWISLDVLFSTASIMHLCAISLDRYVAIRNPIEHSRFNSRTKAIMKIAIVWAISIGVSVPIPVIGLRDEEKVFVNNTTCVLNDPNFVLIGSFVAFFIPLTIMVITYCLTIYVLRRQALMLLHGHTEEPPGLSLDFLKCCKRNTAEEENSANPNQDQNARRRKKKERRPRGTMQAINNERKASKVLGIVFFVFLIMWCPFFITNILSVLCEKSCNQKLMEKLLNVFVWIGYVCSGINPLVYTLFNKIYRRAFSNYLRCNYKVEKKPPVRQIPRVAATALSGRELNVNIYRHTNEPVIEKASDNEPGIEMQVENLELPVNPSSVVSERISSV

DAT = DAT (Homo sapiens, UniProt Q01959); test: NIMH-PDSP radioligand binding assay, DAT
Description: as §1

Alpha1D = target: T3, Alpha1D (Homo sapiens, UniProt P25100); test: NIMH-PDSP radioligand binding assay, Alpha1D
T3 construct: NIMH-PDSP

D3R = target: T4, D3R (Homo sapiens, UniProt P35462); test: NIMH-PDSP radioligand binding assay, D3R
T4 construct: NIMH-PDSP
Description: as §1

5-HT1A receptor = target: T5, 5-HT1A receptor (Homo sapiens, UniProt P08908); test: Competition binding with [^3H]WAY100635 at 5-HT1A receptors (NIMH-PDSP); conditions: for pKi: competition with [^3H]WAY100635, 12 concentrations (10 μM to 1 pM), triplicate, cells expressing 5-HT1A receptor; for Binding affinity ratios of 5-HT1A and α1-adrenergic receptors: in vitro Ki ratio
T5 sequence (P08908 1-422): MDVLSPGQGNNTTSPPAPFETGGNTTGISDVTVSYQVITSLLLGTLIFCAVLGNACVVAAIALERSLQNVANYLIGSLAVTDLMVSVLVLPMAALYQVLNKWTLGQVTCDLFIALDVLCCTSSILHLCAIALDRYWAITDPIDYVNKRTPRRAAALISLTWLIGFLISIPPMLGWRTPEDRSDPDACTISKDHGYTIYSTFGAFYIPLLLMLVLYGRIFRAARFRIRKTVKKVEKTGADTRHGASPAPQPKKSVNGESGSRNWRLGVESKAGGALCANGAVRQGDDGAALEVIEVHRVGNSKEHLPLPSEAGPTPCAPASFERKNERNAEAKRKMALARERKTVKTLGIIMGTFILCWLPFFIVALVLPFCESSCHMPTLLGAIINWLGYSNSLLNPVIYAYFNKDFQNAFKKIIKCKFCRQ

D2R = target: T6, D2R (Homo sapiens, UniProt P14416); test: NIMH-PDSP radioligand binding assay, D2R
T6 construct: NIMH-PDSP
T6 sequence (P14416 whole entry): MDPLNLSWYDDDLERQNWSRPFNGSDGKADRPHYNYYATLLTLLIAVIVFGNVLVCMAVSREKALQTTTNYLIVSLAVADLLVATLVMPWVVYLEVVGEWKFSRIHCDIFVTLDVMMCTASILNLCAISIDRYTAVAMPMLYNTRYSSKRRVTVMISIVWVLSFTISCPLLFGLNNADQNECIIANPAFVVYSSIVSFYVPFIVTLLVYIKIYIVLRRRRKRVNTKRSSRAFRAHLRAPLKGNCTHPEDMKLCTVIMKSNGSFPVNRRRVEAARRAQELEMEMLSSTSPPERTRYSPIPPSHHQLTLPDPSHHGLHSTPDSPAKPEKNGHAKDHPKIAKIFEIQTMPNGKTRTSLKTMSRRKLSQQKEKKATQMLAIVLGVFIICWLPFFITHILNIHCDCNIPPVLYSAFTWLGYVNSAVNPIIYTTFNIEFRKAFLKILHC

T4 sequence (P35462 whole entry): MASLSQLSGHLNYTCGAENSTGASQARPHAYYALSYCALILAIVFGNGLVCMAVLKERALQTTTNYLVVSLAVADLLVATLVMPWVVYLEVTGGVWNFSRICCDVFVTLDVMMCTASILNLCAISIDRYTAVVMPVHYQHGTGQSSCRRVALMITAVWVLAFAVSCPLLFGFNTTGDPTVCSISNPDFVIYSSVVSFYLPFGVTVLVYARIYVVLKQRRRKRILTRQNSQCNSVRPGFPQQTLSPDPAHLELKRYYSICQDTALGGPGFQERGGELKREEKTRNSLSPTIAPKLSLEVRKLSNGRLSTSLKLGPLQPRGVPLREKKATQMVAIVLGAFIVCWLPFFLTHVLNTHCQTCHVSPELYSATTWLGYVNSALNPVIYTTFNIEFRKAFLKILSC
T3 sequence (P25100 whole entry): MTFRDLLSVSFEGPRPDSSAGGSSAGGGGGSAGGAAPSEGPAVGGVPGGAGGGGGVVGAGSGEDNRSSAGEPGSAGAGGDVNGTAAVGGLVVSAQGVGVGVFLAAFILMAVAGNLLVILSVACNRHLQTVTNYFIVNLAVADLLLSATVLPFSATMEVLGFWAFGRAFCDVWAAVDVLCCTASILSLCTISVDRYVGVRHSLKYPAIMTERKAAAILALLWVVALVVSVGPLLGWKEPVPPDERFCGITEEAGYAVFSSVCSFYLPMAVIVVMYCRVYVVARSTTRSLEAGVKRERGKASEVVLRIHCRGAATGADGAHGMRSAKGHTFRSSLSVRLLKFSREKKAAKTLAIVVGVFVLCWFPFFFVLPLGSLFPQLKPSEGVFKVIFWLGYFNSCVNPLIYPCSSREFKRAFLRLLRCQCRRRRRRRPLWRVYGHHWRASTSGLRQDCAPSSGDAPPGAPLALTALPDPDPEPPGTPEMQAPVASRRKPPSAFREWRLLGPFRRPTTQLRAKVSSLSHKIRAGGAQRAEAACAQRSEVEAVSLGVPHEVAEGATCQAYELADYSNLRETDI
DAT, sequence (Q01959 whole entry, species assumed): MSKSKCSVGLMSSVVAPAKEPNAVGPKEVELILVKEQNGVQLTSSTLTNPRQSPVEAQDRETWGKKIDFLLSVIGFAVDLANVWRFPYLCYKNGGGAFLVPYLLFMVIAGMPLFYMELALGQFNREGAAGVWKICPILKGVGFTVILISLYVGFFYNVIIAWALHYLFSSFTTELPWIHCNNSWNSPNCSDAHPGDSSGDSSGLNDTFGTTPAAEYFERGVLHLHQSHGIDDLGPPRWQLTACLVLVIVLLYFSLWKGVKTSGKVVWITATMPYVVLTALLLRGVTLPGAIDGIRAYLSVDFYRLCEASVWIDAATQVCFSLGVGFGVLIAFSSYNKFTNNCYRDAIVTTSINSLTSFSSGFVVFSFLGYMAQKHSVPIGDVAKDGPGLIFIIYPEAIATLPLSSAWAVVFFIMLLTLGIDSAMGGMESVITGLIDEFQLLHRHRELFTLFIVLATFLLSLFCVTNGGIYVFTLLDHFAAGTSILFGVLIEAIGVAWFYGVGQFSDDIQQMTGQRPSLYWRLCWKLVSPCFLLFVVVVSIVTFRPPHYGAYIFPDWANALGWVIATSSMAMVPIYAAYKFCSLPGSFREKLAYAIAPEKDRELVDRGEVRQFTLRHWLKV

Row | SMILES | pKi (Adenosine receptors) | pKi (DOR, KOR, MOR) | pKi (5-HT1A receptors) | pKi (5-HT3) | affinity to 5-HT2C (5-HT2C) | pKi (DAT) | pKi (Alpha1D) | pKi (D3R) | pKi (5-HT1A receptor) | Binding affinity ratios of 5-HT1A and α1-adrenergic receptors (5-HT1A receptor) | pKi (D2R)
1 | COc1ccccc1N1CCN(CCCN/C(=N\C#N)c2ccccn2)CC1 [Compound 1] | < 5.00 | < 5.00 | 8.33 | < 5.00 | high affinities | < 5.00 | 6.67 | 6.43 | 7.66 | ~ 6 | 6.11
2 | COc1ccccc1N1CCN(CCNC(=O)c2ccccn2)CC1 [Compound 2] | < 5.00 | < 5.00 | – | < 5.00 | – | < 5.00 | 7.28 | 5.59 | 8.11 | ~ 6 | < 5.00
